Source: patent publication EP1285920A1, “C10 Ester sustituted taxanes as antitumor agents” (Florida State University Research Foundation, Inc., priority 2001, dated 2003)
pIC50: −log10 of the molar value. Read-outs that look alike come from different tables or passages of the source.

Legend:
[1] = system: VM46 colon carcinoma; settings: for Mean Score: tumor scoring system
Protocol: Dosing was initiated on Day 1. […] Taxotere was given i.v. at a dose of 70 mg/kg on a qd x 1 schedule.

[2] = system: Panc-1 pancreatic carcinoma; assay: In vivo evaluation against Panc-1 human pancreatic carcinoma (Example 17)
[3] = system: A2780 ovarian carcinoma; settings: for Mean Score: tumor scoring system
Protocol: Dosing was initiated on Day 1. […] Taxotere was given i.v. on a qd x 1 schedule at a dose of 70 mg/kg. […] The study was terminated on Day 60. Treatment groups are detailed in Table 7.

[4] = system: SK-MES carcinoma; assay: In vivo evaluation against SK-MES human lung carcinoma xenograft (i.v., Example 11); settings: SK-MES
Protocol: Antitumor compounds were formulated for an i.v. dosing regime prepared in the following vehicle: 10% ethanol, 10% Cremophor and 80% isotonic saline.
Vehicle control animals were dosed twice intravenously with half the total volume being given separated by one hour. The study was terminated on Day 60.
(§1) A complete response is obtained if the tumor is not palpable at the end of the study.
A tumor scoring system was designed to provide a more quantitative ranking of efficacy (therapeutic potential) among the antitumor agents evaluated against the different human solid tumor xenografts. Each mouse in a study was given a score of from 1 to 10 at the end of the study. The scores can be summarized as follows:
The individual score for each mouse was averaged into a mean score for each treatment group. […]

[5] = system: SKMES lung carcinoma; assay: In vivo evaluation of oral administration against SKMES human lung carcinoma xenograft (Example 21); settings: single oral bolus Day 1
Protocol: Female Nu/Nu mice (6-8 weeks of age; implanted with 1 mm^3 SKMES lung carcinoma fragments in the flank) were sorted into treatment groups of six mice each. […] Treatments were administered as a single oral bolus on Day 1, and the study was terminated on Day 60.
as §1
The total response rate is defined as the percentage of evaluable animals (excluding deaths due to procedure or toxicity) in a group that experience complete or partial responses at the termination of the study.

[6] = system: HCT116; assay: In Vitro cytotoxicity measured by the cell colony formation assay; assay type: cell-based, human; settings: Homo sapiens, HCT-116; read-out: IN VITRO ID 50 HCT116
Outline: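 Four hundred cells per dish in McCoy's 5a medium with 10% FBS were allowed to attach for 5 h at 37 °C. They were then exposed to compound for 72 h at 37 °C, added as a 10× stock made fresh in medium. After HBSS rinsing and refeeding, colonies were counted after 7 days.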

[7] = system: DU145 prostate carcinoma; settings: for Stable Disease / Complete Response / Partial Response / Survivors / Toxic Deaths: number of 5 mice
Excerpt: Dosing was initiated on Day 1. […] Treatment groups are detailed in Table 5.

[8] = system: A375 melanoma; settings: for Complete Response / Partial Response / Stable Disease / Survivors / Toxic Deaths: number of mice; for Mean Score: tumor scoring system
Protocol: Dosing was initiated on Day 1. […] Taxotere was given i.v. on a qd x 1 schedule at a dose of 70 mg/kg. […] The study was terminated on Day 60. Treatment groups are detailed in Table 9.

[9] = number of mice, Taxol 15 mg/kg i.p. qd x 5, 6 mice, Day 64
[10] = number of mice, i.v. qd x 1, mg/kg: Taxol 24, 0499 77, 0503 72.6, 0670 123.1, 0706 107.6, 0838 72.6, 0854 46.6, 0983 67.4, Taxotere 70, 6 mice/group, Day 64
[11] = number of mice, i.v. qd x 1, mg/kg: Taxol 36, 0499 77, 0503 72.6, 0670 123.1, 0706 107.6, 0838 72.6, 0854 76.9, 6 mice/group, Day 60
[12] = number of mice, Taxol i.p. qd x 5, 15 mg/kg daily, 5 mice
[13] = number of mice, i.v. qd x 1 at estimated MTD (Taxol 24 mg/kg, Taxotere 70 mg/kg, 0983 72.6 mg/kg), 5 mice/group (Taxotere 6), Day 60
[14] = number of mice, mg/kg: Taxol 40, 0687 228, 0503 73, 6 mice/group, Day 60
[15] = i.v. qd x 1 at estimated MTD (Taxol 24 mg/kg split), Day 91
[16] = Taxol i.p. qd x 5, 18 mg/kg daily, 6 mice
[17] = i.v. qd x 1 at estimated MTD (Taxol 24 mg/kg, Taxotere 70 mg/kg), 6 mice/group (Taxotere 7)
[18] = i.v. qd x 1 at estimated MTD (Taxol 24 mg/kg, Taxotere 70 mg/kg), 6 mice/group (Taxotere 7), Day 60

Compound: CC(=O)O[C@H]1C(=O)[C@@]2(C)[C@H]([C@H](OC(=O)c3ccccc3)[C@]3(O)C[C@H](OC(=O)[C@H](O)[C@@H](NC(=O)c4ccccc4)c4ccccc4)C(C)=C1C3(C)C)[C@]1(OC(C)=O)CO[C@@H]1C[C@@H]2O [Taxol, paclitaxel, reference compound]
- toxicity ([1]; VM46, Taxol i.p. 15 mg/kg qd x 5): excessively toxic
- mortalities ([1]; VM46, Taxol i.p. 15 mg/kg qd x 5, six treated animals): three
- partial responses ([1]; VM46, i.v. qd x 1 (compounds estimated MTD; Taxol 24 mg/kg split), six mice per group, ended Day 64): one
- Stable Disease ([1]; VM46, i.v. qd x 1, six mice per group): one
- MDS (n) ([1]; mean days of survival until neoplasm reached 1.5 g, Taxol 15 mg/kg i.p. qd x 5, 6 mice, terminated Day 64): 36.1 ± 12.2 (2) days
- Toxic Deaths ([1]; number of mice, Taxol 15 mg/kg i.p. qd x 5, 6 mice): 3
- Complete Response [1, 9]: 0
- Partial Response [1, 9]: 1
- Stable Disease [1, 9]: 0
- Survivors [1, 9]: 1
- Toxic Deaths ([1]; number of mice, i.v. qd x 1, mg/kg: Taxol 24, 0499 77, 0503 72.6, 0670 123.1, 0706 107.6, 0838 72.6, 0854 46.6, 0983 67.4, Taxotere 70, 6 mice/group): 0
- Complete Response [1, 10]: 0
- Partial Response [1, 10]: 1
- Stable Disease [1, 10]: 1
- Survivors [1, 10]: 2
- Mean Score ([1]; Taxol 15 mg/kg i.p. qd x 5, 6 mice): 1.8 ± 1.3
- Mean Score ([1]; i.v. qd x 1, mg/kg: Taxol 24, 0499 77, 0503 72.6, 0670 123.1, 0706 107.6, 0838 72.6, 0854 46.6, 0983 67.4, Taxotere 70, 6 mice/group): 3.8 ± 1.4
- survival extension compared to Group 1 controls ([2]; Panc-1 (Example 17), Taxol 36 mg/kg i.v. qd x 1, three mice): 126%
- Toxic Deaths ([2]; Panc-1 (Example 17), i.v. qd x 1, six mice per group): Three
- Toxic Deaths ([2]; number of mice, i.v. qd x 1, mg/kg: Taxol 36, 0499 77, 0503 72.6, 0670 123.1, 0706 107.6, 0838 72.6, 0854 76.9, 6 mice/group): 3
- Complete Response [2, 11]: 0
- Partial Response [2, 11]: 0
- Stable Disease [2, 11]: 0
- Survivors [2, 11]: 0
- Mean Score ([2]; tumor scoring system, i.v. qd x 1, mg/kg: Taxol 36, 0499 77, 0503 72.6, 0670 123.1, 0706 107.6, 0838 72.6, 0854 76.9, 6 mice/group): 1.6 ± 0.7
- toxicity ([3]; A2780, Taxol i.p. 15 mg/kg qd x 5 (Group 3)): highly toxic
- mice succumbed to drug-related side effects ([3]; A2780, Taxol i.p. 15 mg/kg qd x 5 (Group 3), five mice): four
- antitumor activity ([3]; A2780, i.v. qd x 1): moderately efficacious
- survival extension compared to Group 1 controls ([3]; A2780, i.v. qd x 1): 87%
- MDS ([3]; A2780, i.v. qd x 1 (compounds estimated MTD; Taxol 24 mg/kg split; Taxotere 70 mg/kg), days until tumor 2.0 g, ended Day 60): 21.9 days
- Stable Disease ([3]; A2780, i.v. qd x 1, five mice per group): One
- MDS (n) ([3]; mean days of survival until neoplasm reached 2.0 g, i.v. qd x 1 at estimated MTD (Taxol 24 mg/kg, Taxotere 70 mg/kg, 0983 72.6 mg/kg), 5 mice/group (Taxotere 6), terminated Day 60): 21.9 ± 5.5 (5) days
- Complete Response [3, 12]: 0
- Partial Respons [3, 12]: 0
- Stable Disease [3, 12]: 0
- Survivors [3, 12]: 0
- Toxic Deaths [3, 12]: 4
- Toxic Deaths ([3]; number of mice, i.v. qd x 1 at estimated MTD (Taxol 24 mg/kg, Taxotere 70 mg/kg, 0983 72.6 mg/kg), 5 mice/group (Taxotere 6)): 0
- Complete Response [3, 13]: 0
- Partial Respons [3, 13]: 0
- Stable Disease [3, 13]: 0
- Survivors [3, 13]: 1
- Mean Score ([3]; Taxol i.p. qd x 5, 15 mg/kg daily, 5 mice): 0.6 ± 0.6
- Mean Score ([3]; i.v. qd x 1 at estimated MTD (Taxol 24 mg/kg, Taxotere 70 mg/kg, 0983 72.6 mg/kg), 5 mice/group (Taxotere 6)): 1.8 ± 0.4
- survival extension compared to vehicle controls ([4]; Taxol 36 mg/kg i.v.): 30%
- MDS (n) ([4]; i.v. MTD in two half doses one hour apart, qd x 1, Taxol 36 mg/kg, 0503 72.1 mg/kg, days until tumor 1.5 g, ended Day 60): 16 ± 2.0 (6) days
- Toxic Deaths ([4]; i.v. split dose qd x 1, six mice per group): 0
- Survivors ([4]; i.v. split dose qd x 1, six mice per group, Day 60): 0
- Stable Disease ([4]; i.v. split dose qd x 1, tumor below 1.5 g at termination): 0
- Complete Response ([4]; i.v. split dose qd x 1, tumor not palpable at end of study): 0
- Partial Response ([4]; i.v. split dose qd x 1, tumor smaller than on Day 1): 0
- Mean Score ([4]; tumor score 1 to 10 per mouse, group mean): 1.3 ± 0.3
- antitumor activity ([5]; SKMES, 0687 228 mg/kg, 0503 73 mg/kg, Taxol 40 mg/kg): no statistically significant response
- % Total Response ([5]; complete or partial responses among evaluable animals, mg/kg: Taxol 40, 0687 228, 0503 73): 0%
- MDS (n) ([5]; mean days of survival until neoplasm reached 2.0 g, mg/kg: Taxol 40, 0687 228, 0503 73, 6 mice/group, terminated Day 60): 13.2 ± 1.4 (6) days
- Toxic Deaths ([5]; number of mice, mg/kg: Taxol 40, 0687 228, 0503 73, 6 mice/group): 0
- Complete Response [5, 14]: 0
- Partial Response [5, 14]: 0
- Stable Disease [5, 14]: 0
- Survivors [5, 14]: 0
- pIC50 [6]: 8.68
- increase in survival compared to Group 1 controls ([7]; DU145, Taxol 24 mg/kg i.v. qd x 1): 9%
- toxicity ([7]; DU145, Taxol i.p. 18 mg/kg qd x 5 (Group 3)): highly toxic
- mice died of drug-related side effects ([7]; DU145, Taxol i.p. 18 mg/kg qd x 5 (Group 3), five mice): five
- MDS ([7]; DU145, i.v. qd x 1 (compounds estimated MTD; Taxol 24 mg/kg split), days until tumor 1.5 g, ended Day 91): 37.4 days
- toxic deaths / toxic lethalities ([7]; DU145, i.v. qd x 1, five mice per group): One
- Mean Score ([7]; Taxol 18 mg/kg i.p. qd x 5, 5 mice): 0 ± 0
- Mean Score ([7]; i.v. qd x 1 at estimated MTD (Taxol 24 mg/kg split), 5 mice/group, Day 91): 2 ± 1
- MDS (n) ([7]; mean days of survival until tumor reached 1.5 g, i.v. qd x 1 at estimated MTD (Taxol 24 mg/kg as two split doses), 5 mice/group, study ended Day 91): 37.4 ± 8.9 (3) days
- Stable Disease ([7]; tumor did not reach 1.5 g by end of study, i.v. qd x 1 at estimated MTD (Taxol 24 mg/kg split), Day 91): 1
- Complete Response ([7]; Taxol 18 mg/kg i.p. qd x 5): 0
- Partial Response ([7]; Taxol 18 mg/kg i.p. qd x 5): 0
- Stable Disease ([7]; Taxol 18 mg/kg i.p. qd x 5): 0
- Survivors ([7]; Taxol 18 mg/kg i.p. qd x 5): 0
- Toxic Deaths ([7]; Taxol 18 mg/kg i.p. qd x 5): 5
- Toxic Deaths ([7]; i.v. qd x 1 at estimated MTD (Taxol 24 mg/kg as two split doses), Day 91): 1
- Complete Response [7, 15]: 0
- Partial Response [7, 15]: 0
- Survivors [7, 15]: 1
- toxicity ([8]; A375, Taxol i.p. 18 mg/kg qd x 5): highly toxic
- animals died of toxicity ([8]; A375, Taxol i.p. 18 mg/kg qd x 5, six animals): six
- survival extension compared to Group 1 controls ([8]; A375, i.v. qd x 1): 26%
- MDS ([8]; A375, i.v. qd x 1 (Taxol 24 mg/kg split; Taxotere 70 mg/kg), days until tumor 2.0 g, ended Day 60): 18.1 days
- MDS (n) ([8]; mean days of survival until neoplasm reached 2.0 g, i.v. qd x 1 at estimated MTD (Taxol 24 mg/kg, Taxotere 70 mg/kg), 6 mice/group (Taxotere 7), terminated Day 60): 18.1 ± 0.6 (4) days
- Complete Response [8, 16]: 0
- Partial Response [8, 16]: 0
- Stable Disease [8, 16]: 0
- Survivors [8, 16]: 0
- Toxic Deaths [8, 16]: 6
- Toxic Deaths [8, 17]: 2
- Complete Response [8, 18]: 0
- Partial Response [8, 18]: 0
- Stable Disease [8, 18]: 0
- Survivors [8, 18]: 0
- Mean Score [8, 16]: 0 ± 0
- Mean Score [8, 17]: 0.8 ± 0.3
